From US20050064442A1, “Methods for identifying risk of breast cancer and treatments thereof” (priority 2002, published 2005)

System: cell lines where RAD21 expression is inhibited using siRNA
Experiment: Clonogenic survival assay
Type: cell-based
Description: Clonogenic survival assays measure survival of cells after treatment with cytotoxic agents. In this particular assay the aim is to investigate the effect of downregulating RAD21 expression on sensitivity to therapeutically relevant DNA damaging agent.
Cells were transfected with siRNA against RAD21, siRAD21—272, to reduce expression of RAD21. […] Cells were then trypsinized and replated at 200 cells per plate. Cells were grown for 11-12 days, fixed and stained with crystal violet to detect colonies. Colonies were then counted.
The data were fitted to a curve and the DRF values calculated from the fitted curves of siRAD21 and Lipofectamine.

bleomycin
sensitivity to drug in clonogenic survival (cell lines where RAD21 expression is inhibited using siRNA, FIGS. 9 and 10): increased sensitivity
DRF20 (factor by which the dose can be reduced in the presence of decreased RAD21 expression) (cells transfected with siRAD21—272, drug exposure 2 hours, two days after transfection, colonies counted after 11-12 days, from fitted curves of siRAD21 and Lipofectamine): 1.15
